Laboratory results published in patent publication US10519114B2, “Peptidomimetics and methods of using the same” (The Regents of the University of Michigan, priority 2016, dated 2019).

Experiments:
[1] = molecular target: T1, rat μ (C6-MOR) opioid receptor (Rattus norvegicus, UniProt P33535); assay: Radioligand binding assay, [3H]diprenorphine displacement, MOR; conditions: displacement of 0.2 nM [3H]diprenorphine, C6-MOR membranes; mean ± standard error
T1 construct: expressed in transfected cells
How it was run: (§1)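 C6-MOR/C6-DOR (rat) or CHO-KOR (human) membranes, 20 μg protein; 0.2 nM [3H]diprenorphine; 50 mM Tris-HCl pH 7.4; 1 h, RT; GF/C filtration, scintillation counting; NSB 10 μM naloxone; Ki by logistic fit, mean±SEM of ≥3 assays in duplicate.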

[2] = molecular target: T2, rat δ (C6-DOR) opioid receptor (Rattus norvegicus, UniProt P33533); assay: Radioligand binding assay, [3H]diprenorphine displacement, DOR; conditions: displacement of 0.2 nM [3H]diprenorphine, C6-DOR membranes; mean ± standard error
T2 construct: expressed in transfected cells
How it was run: as §1

[3] = molecular target: T3, human κ (CHO-KOR) opioid receptor (Homo sapiens, UniProt P41145); assay: Radioligand binding assay, [3H]diprenorphine displacement, KOR; conditions: displacement of 0.2 nM [3H]diprenorphine, CHO-KOR membranes; mean ± standard error
T3 construct: expressed in transfected cells
How it was run: as §1

[4] = molecular target: T1, rat μ (C6-MOR) opioid receptor; assay: Stimulation of [35S]GTPγS binding, MOR; assay type: biochemical
How it was run: (§2)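 Membranes (10–20 μg protein) from C6 glioma cells expressing rat MOR or DOR, or CHO cells expressing human KOR, were incubated 1 h at room temperature with 0.1 nM [35S]GTPγS, 30 μM GDP and test peptides in Tris buffer pH 7.4. Bound label was filtered and counted; maximal stimulation, by nonlinear regression, was relative to 10 μM DAMGO (MOR), DPDPE (DOR) or U69,593 (KOR).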

[5] = molecular target: T2, rat δ (C6-DOR) opioid receptor; assay: Stimulation of [35S]GTPγS binding, DOR; assay type: biochemical; conditions: for EC50 (nm) DOR / EC50: [35S]GTPγS binding, C6-DOR membranes, mean ± standard error; for % stimulation DOR / Emax: [35S]GTPγS maximal stimulation compared with 10 μM standard DPDPE
How it was run: as §2

[6] = molecular target: T3, human κ (CHO-KOR) opioid receptor; assay: Stimulation of [35S]GTPγS binding, KOR; assay type: biochemical; conditions: for EC50 / EC50 (nm) KOR: [35S]GTPγS binding, CHO-KOR membranes, mean ± standard error; for Emax / % stimulation KOR: [35S]GTPγS maximal stimulation compared with 10 μM standard U-69,593
How it was run: as §2

[7] = [35S]GTPγS binding, C6-MOR membranes, mean ± standard error
[8] = [35S]GTPγS maximal stimulation compared with 10 μM standard DAMGO

T3 sequence (P41145 whole entry): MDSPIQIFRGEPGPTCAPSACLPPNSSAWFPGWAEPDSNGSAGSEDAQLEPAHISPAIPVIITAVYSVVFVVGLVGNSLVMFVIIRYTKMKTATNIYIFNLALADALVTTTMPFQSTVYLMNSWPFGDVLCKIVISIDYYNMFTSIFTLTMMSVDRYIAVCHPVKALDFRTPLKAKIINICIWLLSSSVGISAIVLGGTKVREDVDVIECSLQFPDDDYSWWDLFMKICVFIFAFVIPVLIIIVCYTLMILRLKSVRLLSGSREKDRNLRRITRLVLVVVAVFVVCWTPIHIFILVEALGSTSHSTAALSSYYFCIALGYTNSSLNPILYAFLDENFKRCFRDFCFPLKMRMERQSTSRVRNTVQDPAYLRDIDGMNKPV
T1 sequence (P33535 whole entry): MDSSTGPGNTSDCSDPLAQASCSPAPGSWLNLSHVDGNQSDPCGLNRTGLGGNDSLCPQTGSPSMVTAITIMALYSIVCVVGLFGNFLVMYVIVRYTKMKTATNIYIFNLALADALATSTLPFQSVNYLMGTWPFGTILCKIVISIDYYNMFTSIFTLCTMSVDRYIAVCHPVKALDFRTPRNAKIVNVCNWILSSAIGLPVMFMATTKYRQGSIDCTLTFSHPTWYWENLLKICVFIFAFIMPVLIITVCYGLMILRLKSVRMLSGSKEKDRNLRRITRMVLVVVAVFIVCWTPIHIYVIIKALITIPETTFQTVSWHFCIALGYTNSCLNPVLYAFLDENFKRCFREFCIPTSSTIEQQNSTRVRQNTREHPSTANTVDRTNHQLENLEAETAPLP
T2 sequence (P33533 whole entry): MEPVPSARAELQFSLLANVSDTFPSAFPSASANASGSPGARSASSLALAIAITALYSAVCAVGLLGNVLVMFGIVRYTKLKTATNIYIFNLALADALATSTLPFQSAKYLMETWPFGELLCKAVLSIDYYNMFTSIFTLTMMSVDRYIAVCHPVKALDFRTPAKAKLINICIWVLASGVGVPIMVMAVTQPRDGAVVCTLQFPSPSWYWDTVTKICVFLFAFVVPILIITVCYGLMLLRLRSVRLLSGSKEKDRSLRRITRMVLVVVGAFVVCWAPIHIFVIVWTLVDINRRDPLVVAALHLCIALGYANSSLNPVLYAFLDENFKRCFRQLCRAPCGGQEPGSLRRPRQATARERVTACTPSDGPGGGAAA

Compound	Ki [1]	Ki [2]	Ki [3]	EC50 [4, 7]	Emax [4, 8]	EC50 (nm) DOR [5]	% stimulation DOR [5]	EC50 [6]	Emax [6]	EC50 [5]	% stimulation KOR [6]	Emax [5]	EC50 (nm) MOR [4, 7]	% stimulation MOR [4, 8]	EC50 (nm) KOR [6]
Cc1cc(O)cc(C)c1C[C@H](N)C(=O)N[C@@H]1CCNc2ccc(Sc3ccccc3)cc21 [Compound 1053]	0.45 ± 0.11 nM	5.08 ± 0.52 nM	10.8 ± 6.24 nM	4.67 ± 1.44 nM	51.6 ± 6.43%	dns	dns	1120 nM	22.4%						
Cc1cc(O)cc(C)c1C[C@H](N)C(=O)N[C@@H]1CCNc2ccc(CN3CCc4ccc(F)cc4C3)cc21 [Compound 1054]	0.17 ± 0.02 nM	16.7 ± 2.47 nM	9.63 ± 0.4 nM	0.5 ± 0.05 nM	105 ± 4.56%		dns	108 nM		25.9 ± 16.9 nM	dns				
CC(=O)N1CC[C@@H](NC(=O)[C@@H](N)Cc2c(C)cc(O)cc2C)c2cc(Cc3ccccc3)cc(C)c21 [Compound 1055]	0.18 ± 0.04 nM	1.88 ± 0.53 nM	80 ± 20 nM	7.05 ± 2.32 nM	86 ± 3%			930 ± 600 nM	32 ± 2%	384 ± 296 nM		30 ± 3%			
Cc1cc(O)cc(C)c1C[C@H](N)C(=O)N[C@@H]1CCNc2ccc(CN3CCC4(CCCCC4)CC3)cc21 [Compound 1060]	0.22 ± 0.1 nM	36.5 ± 18.9 nM	2.44 ± 0.99 nM			dns	dns	92.1 ± 15.5 nM	71.6 ± 4.38%				dns	dns	
Cc1cc(O)cc(C)c1C[C@H](N)C(=O)N[C@@H]1CCNc2ccc(CN3CCc4cccc(C(F)(F)F)c4C3)cc21 [Compound 1061]	0.17 ± 0.03 nM	13.6 ± 1.27 nM	48.5 ± 17.5 nM	8.88 ± 2.71 nM	37.8 ± 2.55%	dns	dns				dns				dns
CC(=O)N1CC[C@@H](NC(=O)[C@@H](N)Cc2c(C)cc(O)cc2C)c2cc(CN3CCc4ccc(F)cc4C3)ccc21 [Compound 1062]	0.05 ± 0.01 nM	0.77 ± 0.23 nM	16.2 ± 7.94 nM	23.7 ± 26.7 nM	99.6 ± 1.92%	dns	dns	234 ± 70.1 nM	34.2 ± 8.24%						
COc1cc(Cc2ccccc2)cc2c1NCC[C@H]2NC(=O)[C@@H](N)Cc1c(C)cc(O)cc1C [Compound 1063]	0.24 ± 0.11 nM	3.08 ± 1 nM	29.9 ± 10.4 nM	2.5 ± 0.45 nM	84.1 ± 0.96%					63.3 ± 12.2 nM	dns	50.8 ± 9.61%			dns
Cc1cc(O)cc(C)c1C[C@H](N)C(=O)N[C@@H]1CCNc2ccc(Cc3cc4ccccc4o3)cc21 [Compound 1065]	0.11 ± 0.03 nM	4.76 ± 1.9 nM	41.4 ± 22.4 nM	1.14 ± 0.49 nM	97.9 ± 1.43%	dns					dns	13.9%			dns
CC(=O)N1CC[C@@H](NC(=O)[C@@H](N)Cc2c(C)cc(O)cc2C)c2cc(CN3CCc4cccc(C(F)(F)F)c4C3)ccc21 [Compound 1066]	0.16 ± 0.01 nM	3.05 ± 0.88 nM	59.2 ± 12.4 nM	1.25 ± 0.44 nM	55.1 ± 2.83%	dns	dns				dns				dns
CC(=O)N1CC[C@@H](NC(=O)[C@@H](N)Cc2c(C)cc(O)cc2C)c2cc(-c3ccccc3)ccc21 [Compound 1067]	0.88 ± 0.4 nM	1.32 ± 0.37 nM	35.8 ± 16.8 nM	5.64 ± 0.35 nM	51.3 ± 8.48%			291 ± 32.5 nM	69.1 ± 5.04%	1520 ± 889 nM		37.4 ± 6.31%			
Cc1cc(O)cc(C)c1C[C@H](N)C(=O)N[C@@H]1CCNc2ccc(-c3ccccc3)cc21 [Compound 1068]	1.11 ± 0.44 nM	13.4 ± 4.32 nM	165 ± 110 nM	11.8 ± 5.77 nM	23.7 ± 5.88%	dns	dns	933 ± 219 nM	57.1 ± 2.63%						
Cc1cc(O)cc(C)c1C[C@H](N)C(=O)N[C@@H]1CCN2CCCc3cc(Cc4ccccc4)cc1c32 [Compound 1069]	0.39 ± 0.14 nM	2.26 ± 0.8 nM	6.62 ± 2.57 nM	1.12 ± 0.52 nM	95.2 ± 3.99%			1000 nM	78.4%	570 ± 298 nM		50.4 ± 13.7%			
COc1cc(Cc2ccccc2)cc2c1N(C(C)=O)CC[C@H]2NC(=O)[C@@H](N)Cc1c(C)cc(O)cc1C [Compound 1076]	0.14 ± 0.01 nM	2.16 ± 1.15 nM	44.8 ± 16.9 nM	0.78 ± 0.2 nM	95.8 ± 10.2%			1480 ± 639 nM	16.1 ± 5.54%	4.62 ± 1.9 nM		44.6 ± 3.75%			
Cc1cc(O)cc(C)c1C[C@H](N)C(=O)N[C@H]1c2cc(Cc3ccccc3)ccc2NC[C@H]1C [Compound 1078]	0.75 ± 0.03 nM	2.02 ± 0.21 nM	17.7 ± 2.24 nM	3.14 ± 1.51 nM	80.2 ± 7.89%			900 ± 326 nM	26.4 ± 5.75%	30.9 nM		21.4%			
Cc1cc(O)cc(C)c1C[C@H](N)C(=O)N[C@@H]1CCNc2c(-c3cc4ccccc4o3)cc(Cc3ccccc3)cc21 [Compound 1095]	3.14 ± 1 nM	71 ± 17 nM	800 ± 115 nM	15.6 ± 6.86 nM	100 ± 2.48%	dns	dns				dns				dns
Cc1cc(O)cc(C)c1C[C@H](N)C(=O)N[C@@H]1CCNc2c(CN3CCN(C(=O)[C@@H](N)Cc4c(C)cc(O)cc4C)CC3)cc(Cc3ccccc3)cc21 [Compound 1096]	0.31 ± 0.16 nM	2.56 ± 0.53 nM	7.17 ± 2.38 nM	5.89 ± 0.68 nM	86 ± 8%	dns	dns				dns				dns
Cc1cc(O)cc(C)c1C[C@H](N)C(=O)N[C@@H]1CCOc2ccc(Cc3ccccc3)cc21 [Compound 1111]	0.046 ± 0.028 nM	8.65 ± 1.61 nM	58.3 ± 14.1 nM	4.85 ± 2.14 nM	69.7 ± 5.97%			662 ± 152 nM	28.3 ± 6.71%	118 ± 2.45 nM		8.97 ± 4.78%			
Cc1cc(O)cc(C)c1C[C@H](N)C(=O)N[C@H]1CCOc2ccc(Cc3ccccc3)cc21 [Compound 1112]	6.07 ± 2.41 nM	260 ± 62.9 nM	354 ± 37.1 nM	654 ± 361 nM	7.18 ± 2.41%				-0.061 ± 0.45%			2.48 ± 3.08%			
